Values of other authors, collected in paper PMC7289749 (European Journal of Medicinal Chemistry, 2020).
Read-outs that look alike come from different tables or passages of the source.

Key:
SARS-CoV-2 [1] = conditions: for EC50: read-out: EC50 (half-maximal effective concentration)
Vero E6 cells = conditions: read-out: CC50 (half-maximal cytotoxic concentration)
SARS-CoV-2 [2] = conditions: human liver cancer Huh-7 cells
SARS-CoV-2 Mpro = conditions: read-out: SARS-CoV-2 Mpro inhibitory activity IC50
SARS-CoV-2 [3] = conditions: read-out: inhibition on the replication of SARS-CoV-2 EC50; dose-dependent
[4] = in animals, relative to CQ
SARS-CoV-2 [5] = test system: SARS-CoV-2

Compound	selectivity index (SI) (SARS-CoV-2 [1]; CC50/EC50, Vero E6 cells)	CC50 (Vero E6 cells)	also measured
Nc1nc2c(ncn2CCC(CO)CO)c(=O)[nH]1 [Penciclovir]	> 4.17	> 400 µM	EC50 (SARS-CoV-2 [1]): 96 µM
CC(=O)Oc1ccccc1C(=O)Nc1ncc([N+](=O)[O-])s1 [Nitazoxanide]	> 16.76	> 35.5 µM	EC50 (SARS-CoV-2 [1]): 2.12 µM
Remdesivir	–	–	inhibition of virus infection (SARS-CoV-2 [2]): inhibited virus infection
CCN(CC)CCCC(C)Nc1ccnc2cc(Cl)ccc12 (stereo not shown) [Chloroquine]	> 88.50	–	–
O=c1cc(-c2ccccc2)oc2cc(O)c(O)c(O)c12 [Baicalein]	–	–	IC50 (SARS-CoV-2 Mpro): […]; EC50 (SARS-CoV-2 [3]): 1.69 µM
CCN(CCO)CCCC(C)Nc1ccnc2cc(Cl)ccc12 (stereo not shown) [Hydroxychloroquine]	–	–	less toxic than CQ [4]: about 40%
N=C(N)Nc1ccc(C(=O)Oc2ccc3cc(C(=N)N)ccc3c2)cc1 [Nafamostat]	–	–	selectivity index (SI) (SARS-CoV-2 [1]): > 4.44
O=c1c2ccccc2[se]n1-c1ccccc1 [Ebselen]	–	–	anti-viral activity in cell-based assays (SARS-CoV-2 [5]): effective anti-viral activity
NC(=O)c1nc(F)c[nH]c1=O [Favipiravir]	–	> 400 µM	–
NC(=O)c1ncn([C@@H]2O[C@H](CO)[C@@H](O)[C@H]2O)n1 [Ribavirin]	> 3.65	> 400 µM	–
